{"source": "patent US20230355581A1", "about": "“METHODS OF TREATMENT FOR MELANOMA” (THE BOARD OF REGENTS OF THE UNVERSITY OF TEXAS SYSTEM, priority 2020, published 2023)", "key": {"[1]": {"tested_on": "RAC1^P29S knock-in A375 cell line", "assay": "Cytotoxic and cytostatic activity, RAC1 P29S knock-in A375", "format": "cell-based", "conditions": "RAC1 P29S knock-in A375, addition of SU11652 to RMIC", "text": "Two new cell lines were used to shed insight into the relationship between RAC1 signaling and SU11652 activity. The first cell line used was IGR1 which is RAC1^P29S. […] The second new cell line was a knock-in RAC1P29S variant of A375 which allows direct comparisons between RAC1^WT and RAC1P29s melanoma."}, "[2]": {"tested_on": "BRAF and MEK inhibitor resistant (BRAFr/MEKr) A375 cells", "assay": "3D viability dose response, BRAFr/MEKr A375", "format": "cell-based", "conditions": "A375 made resistant with Dabrafenib+Trametinib for approximately one month", "procedure": "FIG. 7 panels A-D show the effect of SU11652 on BRAF and MEK inhibitor resistant (BRAFr/MEKr) melanoma cells. M481 and A375 cells were treated with 10 nM Dabrafenib+1 nM Trametinib (M481 and A375), or 100 nM Dabrafenib+10 nM Trametinib (M481 and A375) for approximately one month to make them resistant to the BRAF and MEK inhibitor (BRAFr/MEKr)."}, "[3]": {"tested_on": "murine splenocytes", "assay": "Splenocyte viability by trypan blue staining", "format": "cell-based", "conditions": "anti-CD3, anti-CD28 stimulated, 2 and 3 days, all doses", "excerpt": "Murine splenocytes were stimulated with anti-CD3 and anti-CD28 in addition to the indicated SU11652 doses for 2 and 3 days. At indicated timepoints, splenocytes were counted and cell death was quantified by trypan blue staining using automated cell counter. Error bars represent standard error of means for N=3 mice per timepoint.\nMurine splenocytes were stimulated with anti-CD3, anti-CD28, and murine recombinant IL-2 in addition to the indicated SU11652 doses for 2 and 3 days (FIG. 4). At the indicated timepoints, splenocytes were counted and cell death was quantified by trypan blue staining using an automated cell counter. Error bars represent the standard error of the mean (SEM) for N=3 mice per timepoint. VC=vehicle control."}, "[4]": {"tested_on": "A375 cells", "assay": "2D dose response of RMIC-resistant BRAF V600E melanoma cells", "format": "cell-based", "conditions": "2D culture", "excerpt": "Two new cell lines were used to shed insight into the relationship between RAC1 signaling and SU11652 activity. The first cell line used was IGR1 which is RAC1^P29S. […] A375 is a classical melanoma cell line that is RAC1^WT and BRAF^V600E, which we had already tested SU11652. The second new cell line was a knock-in RAC1P29S variant of A375 which allows direct comparisons between RAC1^WT and RAC1P29s melanoma."}, "[5]": {"tested_on": "B16-F10 cells (BRAF-WT)", "assay": "B16-F10 intradermal tumor model in immunocompetent mice", "format": "in vivo, WT C57BL/6 mice", "conditions": "for tumor growth rate between day 7 and 11 (mean tumor burden): 4 consecutive days from day 7, 0 mg/kg group 7.92", "procedure": "WT C57BL/6 mice were implanted with 300,000 B16-F10 cells intradermally. The animals were regrouped to normalize the tumor volume. Animals were administered vehicle control (DMSO in PBS, 0 mg/kg SU11652) or increasing doses of SU11652 (10-20-40 mg/kg) orally for 4 consecutive days starting day 7, when the tumors are palpable. The tumor dimensions were measured by caliper (in mm) and the tumor volumes are calculated as follows: tumor volume=(short side^2×long side)/2 (in mm^3). […] Tumors grew approximately 7.92 times between day 7 and 11 in 0 mg/kg group, however the presence of SU11652 decreased the tumor growth rate to 3.8 to 2.35 (10 mg/kg to 40 mg/kg).\nThe experiment was terminated at day 20 since some animals had tumors large tumors in 0 mg/kg group and were required to be euthanized.\nHigher doses of SU11652 lead to more tumor control."}, "[6]": {"tested_on": "BRAF WT M405 melanoma tumor cell model", "procedure": "Cells were subcutaneously implanted at 3 million cells per mice with matrigel in the lower back of the mice. Once the tumors were palpable (150-200 mm^3), the mice were randomized and drug treatment was initiated. The mice were treated with vehicle control, 20 mg/kg sunitinib and 20 mg/kg SU11652. The mice were treated with drugs daily for the duration of the experiment. Tumor sizes were assessed twice weekly using caliper measurement, and tumor volume was calculated using the formula (length×width^2×π)/6. Mice were euthanized when the tumor volume exceeded 1250 mm^3 or when necessary for animal welfare. The drug was dissolved in 0.5% w/v carboxymethylcellulose sodium, 1.8% w/v NaCl, 0.4% w/v Tween-80, 0.9% w/v benzyl alcohol. All mice were sacrificed before tumor weight exceeded 10% of body weight.\n6-8 week old Nod-Scid IL2Rγ KO mice (NSG) were implanted at a single subcutaneous site with 3×10^6 A375 or M405 melanoma cells (FIGS. 6 and 9, respectively) in matrigel (0.2 ml). When tumors reached approximately 150-200 mm^3 (day 11 post tumor cell implantation for A375 cells; day 21 post tumor cell implantation for […]), therapy was initiated. For A375 melanoma cells, treatment was with 20 mg/kg SU11652, 20 mg/kg Sunitinib, 50 mg/kg Debrafenib/0.5 mg/kg Trametinib or vehicle only (0.5% CMC/1.8% NaCl/0.4% Tween80/0.9% Benzyl Alcohol) at 0.2 ml/mouse PO qd. For M405 cells, treatment was with 20 mg/kg SU11652, 20 mg/kg Sunitinib or vehicle only (0.5% CMC/1.8% NaCl/0.4% Tween80/0.9% Benzyl Alcohol) at 0.2 ml/mouse PO qd. Compounds were administered as homogenous slurries after sonication (and heating at 60° C. for debrafenib/trametinib). Mice were weighed daily and tumors were measured with calipers twice weekly. Tumor volume was calculated as (L×W^2×pi)/6. When tumor volume reached >1250 mm^3 or if mice appeared moribund, they were euthanized and tumors immediately collected and snap frozen. […] All mice not previously euthanized were sacrificed on day 43 (A375 cells) or day 59 (M405 cells).\nTumor growth was evaluated as described in Evans (Evans et al., Cancer Immunol Res. 2015 June; 3(6):689-701). Time to endpoint (TTE) was determined by extrapolating the day on which tumors reached 1250 mm^3 from log-transformed tumor growth data sets. […] The median TTE was calculated for the group and tumor growth delay (TGD) defined as the increase in the median TTE in a treatment group compared to the control group, using the formula: % TGD=((T−C)/C)×[…]. […] The average % TGI was calculated for treatment days when all animals were still present. Mean tumor volumes±SEM were plotted and the difference between treated and control evaluated by Student's unpaired t-test (GraphPad QuickCalcs)."}, "[7]": {"tested_on": "B16BL6 melanoma cells", "assay": "3D collagen culture viability dose response, B16BL6", "format": "cell-based, murine", "conditions": "B16BL6, 3D collagen matrix", "experimental": "(§1) Y-axis is the viability ratio where 1=100% viability, and 0=0% viability. The lines are non-linear fits, which are used to show the best fit curves. Those same fits are also used to calculate IC50 values. RMIC (where applicable) and DMSO are indicated as separate dots.\n(§2) FIG. 1 panels A-F show the effect of SU11652 on BRAF V600E mutant (A375, M481) and BRAF-WT (M405, M498) as well as B16BL6 and B16F10 melanoma cells. The indicated cell line was cultured in collagen matrix to create physiologically relevant 3D culture conditions. The drug treatment was applied for 72 h and the response quantified. Three types of signal were measured using three different markers: apoptosis (CellEvent Caspase 3/7), permeabilized cell nuclei (ethidium homodimer), and all nuclei (Hoechst 33342) using an epifliorescence microscope. Each well of a 96-well plate was imaged at three different locations, with a z-step size of 2 μm for 251 steps to cover the entire height at that location. […] To resolve overlaps, we used the following precedence: permeabilization indicates cell death thus overwrites both other channels; in the absence of permeabilization, apoptosis marker overrides the Hoechst nuclear stain. These absolute pixel counts signal were converted to a relative viability signal by calculating the ratio of ethidium homodimer plus apoptosis signal to the total nuclear stain signal. […]"}, "[8]": {"tested_on": "B16F10 melanoma cells", "assay": "3D collagen culture viability dose response, B16F10", "format": "cell-based, murine", "conditions": "B16F10, 3D collagen matrix", "experimental": "as §1, §2"}, "[9]": {"conditions": "M405, 20 mg/kg PO daily, compared with sunitinib"}}, "note": "Entries after “also recorded” stand apart in the source; their conditions may differ.", "data": [{"molecule": "CCN(CC)CCNC(=O)c1c(C)[nH]c(/C=C2\\C(=O)Nc3ccc(Cl)cc32)c1C", "note": "[SU11652, 5-[(Z)-(5-chloro-2-oxo-1,2-dihydro-3H-indol-3-ylidene)methyl]-N-[2-(diethylamino)ethyl]-2,4-dimethyl-1H-pyrrole-3-carboxamide]", "values": [{"measurement": "cytostatic activity", "setting": "[1]", "result": "caused both cytotoxic and cytostatic effect"}, {"measurement": "cytotoxic activity", "setting": "[1]", "result": "caused both cytotoxic and cytostatic effect"}, {"measurement": "effect on viability of resistant cells", "setting": "[2]", "result": "worked effectively on BRAF- and MEK-inhibition resistant melanoma cells; also recorded: effective on these RAF/MEK dual inhibition resistant cells"}, {"measurement": "splenocyte viability / cell death", "setting": "[3]", "result": "splenocytes remained viable; also recorded: does not kill normal immune cells"}, {"measurement": "cytotoxic activity under 2D conditions", "setting": "[4]", "result": "does not show cytotoxic activity; also recorded: does not match that observed in 3D and in vivo"}, {"measurement": "tumor growth rate between day 7 and 11 (mean tumor burden)", "setting": "[5]; 10 mg/kg orally", "result": 3.8, "unit": "times"}, {"measurement": "tumor growth rate between day 7 and 11 (mean tumor burden)", "setting": "[5]; 40 mg/kg orally", "result": 2.35, "unit": "times"}, {"measurement": "tumor control (dose dependence)", "setting": "[5]; 10-20-40 mg/kg orally, tumor burden to day 20", "result": "dose-dependent improvement in tumor control; also recorded: Higher doses of SU11652 lead to more efficient tumor control; also recorded: increasingly effective control of tumor volume"}, {"measurement": "average tumor growth inhibition", "setting": "[6]; [9]", "result": "better average tumor growth inhibition"}, {"measurement": "tumor growth delay", "setting": "[6]; [9]", "result": "greater tumor growth delay"}, {"measurement": "time to endpoint", "setting": "[6]; M405, 20 mg/kg PO daily, endpoint 1250 mm^3, compared with sunitinib", "result": "longer time to endpoint"}, {"measurement": "toxicity leading to weight loss", "setting": "[6]; mouse, in vivo", "result": "did not incur a major toxicity that would lead to weight loss"}, {"measurement": "cytotoxic effect (viability ratio dose response)", "setting": "[7]", "result": "broadly cytotoxic to melanoma cells"}, {"measurement": "cytotoxic effect (viability ratio dose response)", "setting": "[8]", "result": "broadly cytotoxic to melanoma cells"}]}]}
